For assay [1], the target named is T1, [3H]serotonin re-uptake in synaptosome (Rattus norvegicus, UniProt P31652).
T1 construct: to give a synaptosome solution; from tissue; host or cells: rat cerebral cortex synaptosomes (male SD rats)
Kind of assay: Inhibition of serotonin reuptake in rat cerebral cortex synaptosome. The assay is classed as biochemical. Particulars: Ki calculated from IC50 and Kd, read-out: Serotonin Reuptake Inhibiting Activity, Ki value. As for the experimental part:
(§1) Experiments for Inhibition of Serotonin Reuptake and Experiments for Inhibition of Norepinephrine Reuptake
(§2) Cerebral cortex of male SD rats (JAPAN SLC Inc.), over six weeks of age was excised and a 0.32M sucrose solution was added thereto in an amount of 10 mL per gram of the cerebral cortex followed by homogenizing. The homogenized solution was centrifuged, the supernatant thereof was further centrifuged at high speed and, to the resulting pellets, a PSS solution (pH 7.4; comprising 150 mM of NaCl, 4 mM of KCl, 1 mM of MgCl2, 2.5 mM of HEPES, 0.9 mg/mL of glucose, 0.176 mg/mL of ascorbic acid and 1 mM of pargylin) was added in an amount of 10 mL per gram of the pellets to give a synaptosome solution. A compound to be tested (100 μL) was added to 100 μL of the synaptosome solution and 700 μL of a 50 mM Tris buffer (pH 7.4; trihydroxylaminomethane) followed by subjecting to pre-incubation at 37° C. for 5 minutes. After the pre-incubation, 100 μL of [^3H]serotonin or [^3H]norepinephrine diluted to 10 nM and 20 nM, respectively, with a Tris buffer was added thereto followed by incubating at 37° C. for 5 minutes.
(§3) Synaptosome was recovered on a GF/B filter using a cell harvester and further washed three times using a washing solution (50 mM Tris buffer; pH 7.4; 4° C.). The filter was transferred to a vial, a scintillator was added thereto and the radiation activity was measured using a liquid scintillation counter.
(§4) Incidentally, the non-specific reaction was defined as the radiation activity under ice-cooling (4° C.) and the difference between the total radiation activity and the radiation activity under the non-specific reaction was adopted as the radiation activity specifically re-uptaken in the synaptosome. IC50 value was determined from the re-uptake inhibition rate in the presence of a test compound and, from IC50 value and the Kd value of [^3H]serotonin or [^3H]norepinephrine, Ki value of the test compound showing a re-uptake inhibiting activity of serotonin or norepinephrine, respectively, was calculated.

In assay [2] the target is T2, [3H]norepinephrine re-uptake in synaptosome (Rattus norvegicus, UniProt Q9WTR4).
T2 construct: to give a synaptosome solution; from tissue; host or cells: rat cerebral cortex synaptosomes (male SD rats)
Kind of assay: Inhibition of norepinephrine reuptake in rat cerebral cortex synaptosome. The assay is classed as biochemical. The note with it: Ki calculated from IC50 and Kd, read-out: Norepinephrine Reuptake Inhibiting Activity, Ki value. As to the method: as §1, §2, §3, §4

In the next assay the test system is rats under anesthesia. Kind of assay: Measurement of urine leak point pressure in rats under anesthesia. The assay is classed as in vivo, rat. The note with it: intravenous administration of not more than 10 mg/kg; female rats, urethane anesthesia, thoracic spine cut at T8 to T9. As for the experimental part:
Measurement of Urine Leak Point Pressure in Rats Under Anesthesia Under anesthesia with urethane (1.2 g/kg; subcutaneous administration), the thoracic spine of female rats of 8 to 12 weeks of age (Japan SLC Inc.) was cut at the level of T8 to T9 so that the micturition reflex was made to disappear, then the abdomen was subjected to a median incision to expose the bladder and then a cannula was inserted into the bladder. An appropriate amount (ca. 0.4 mL) of a physiological saline was previously infused into the bladder, both sides of the bladder were gradually pressed with two cotton buds and the inner pressure of the bladder when the physiological saline solution leaked out from the urethral orifice was measured as a pressure upon leakage of urine. The measurement was repeated several times until the measured values became stable and, after that, the test compound was intravenously administered and a pharmacological effect of the test compound was evaluated.

T2 sequence (Q9WTR4 1-597): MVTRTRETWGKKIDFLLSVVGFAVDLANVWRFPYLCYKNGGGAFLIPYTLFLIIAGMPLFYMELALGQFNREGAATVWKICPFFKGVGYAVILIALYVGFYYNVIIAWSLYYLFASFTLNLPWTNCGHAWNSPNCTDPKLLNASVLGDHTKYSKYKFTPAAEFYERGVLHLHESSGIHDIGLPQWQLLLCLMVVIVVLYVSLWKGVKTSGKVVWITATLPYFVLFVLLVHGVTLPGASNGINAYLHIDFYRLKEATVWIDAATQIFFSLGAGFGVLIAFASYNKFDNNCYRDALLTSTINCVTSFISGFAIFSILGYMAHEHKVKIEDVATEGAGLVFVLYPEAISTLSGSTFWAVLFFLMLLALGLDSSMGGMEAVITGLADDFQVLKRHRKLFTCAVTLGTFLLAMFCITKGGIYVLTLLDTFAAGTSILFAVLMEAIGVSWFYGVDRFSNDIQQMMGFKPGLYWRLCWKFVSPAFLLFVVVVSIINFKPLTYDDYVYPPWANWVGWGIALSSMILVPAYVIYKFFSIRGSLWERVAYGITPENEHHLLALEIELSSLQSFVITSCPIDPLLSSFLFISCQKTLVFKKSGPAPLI
T1 sequence (P31652 whole entry): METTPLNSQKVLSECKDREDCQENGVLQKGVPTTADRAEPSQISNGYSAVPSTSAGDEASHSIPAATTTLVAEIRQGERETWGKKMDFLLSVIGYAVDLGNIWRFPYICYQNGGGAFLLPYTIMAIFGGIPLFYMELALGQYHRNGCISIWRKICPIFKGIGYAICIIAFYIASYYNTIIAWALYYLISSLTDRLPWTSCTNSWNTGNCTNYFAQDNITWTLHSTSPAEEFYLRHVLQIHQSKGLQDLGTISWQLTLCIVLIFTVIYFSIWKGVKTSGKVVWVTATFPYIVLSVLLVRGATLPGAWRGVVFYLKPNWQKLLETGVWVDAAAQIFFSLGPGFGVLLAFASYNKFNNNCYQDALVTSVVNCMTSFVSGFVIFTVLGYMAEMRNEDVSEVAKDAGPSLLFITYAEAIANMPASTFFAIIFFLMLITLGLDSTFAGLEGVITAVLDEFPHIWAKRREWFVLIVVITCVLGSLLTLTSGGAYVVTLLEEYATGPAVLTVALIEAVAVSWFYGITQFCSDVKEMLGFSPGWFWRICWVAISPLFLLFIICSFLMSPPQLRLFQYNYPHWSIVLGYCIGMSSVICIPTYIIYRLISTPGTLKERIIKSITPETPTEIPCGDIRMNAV

By Ki is commonly meant the dissociation constant of the complex between target and ligand, obtained from inhibition or displacement. For `Cc1cc2c(o1)CN(C)CCC2Oc1cccc2ccccc12.Cl` (single isomer, unassigned; (+)) [Example 401, (+)-2,7-Dimethyl-4-(naphthalen-1-yloxy)-5,6,7,8-tetrahydro-4H-furo[2,3-c]azepine hydrochloride], the Ki in assay [1] is 1 nM; in assay [2] it was 3.2 nM. Further, the “leak point pressure (pressure upon leakage of urine)” value in the assay with rats under anesthesia is reported as “raised the leak point pressure”.

On to `Cc1cc2c(s1)CN(C)CCC2Oc1cccc2ccccc12.Cl` (stereo not drawn) [Example 102, 2,7-Dimethyl-4-(naphthalen-1-yloxy)-5,6,7,8-tetrahydro-4H-thieno[2,3-c]azepine hydrochloride], for which the inhibition constant (Ki) was 3.4 nM in assay [1] and 4 nM in assay [2]. In addition, the “leak point pressure (pressure upon leakage of urine)” value with rats under anesthesia was “raised the leak point pressure”.

Values taken from patent US8217031B2, “Heteroaryl derivatives” (Nippon Shinyaku Co., Ltd., priority 2007, dated 2012).
